# Measured values published in patent publication US4731109A, “Herbicidal 2-haloacetanilides” (Monsanto Company, priority 1982, dated 1988).
# What was measured:
# [1] = tested on: rape; assay: Greenhouse pre-emergence GR15/GR85 selectivity test; assay type: in vivo; details: Table VI
# Text: (§1) A good grade of top soil is placed in aluminum pans and compacted to a depth of three-eighths to one-half inch from the top of the pan. On the top of the soil is placed a number of seeds or vegetative propagules of various plant species. The soil required to level fill the pans after seeding or adding vegetative propagules is weighed into a pan. The soil and a known amount of the active ingredient applied in a solvent or as a wettable powder suspension are thoroughly mixed, and used to cover the prepared pans. After treatment, the pans are given an initial overhead irrigation of eater, equivalent to one-fourth inch (0.64 cm) rainfall, then watered by subirrigation as need to give adequate moisture for germination and growth. As an alternative procedure, the overhead irrigation may be omitted. Observations are made about 2-3 weeks after seeding and treatment.
# (§2) In the discussion and tables of data below, reference is made to herbicide application rates symbolized as "GR15 " and "GR85 "; these rates are given in kilograms per hectare (kg/ha) which are convertible into pounds per acre (lbs/A) by dividing the kg/ha rate by 1.12.
# (§3) A further guide to the effectiveness of a chemical as a selective herbicide is the "selectivity factor" ("SF") for a herbicide in given crops and weeds. The selectivity factor is a measure of the relative degree of crop safety and weed injury and is expressed in terms of the GR15 /GR85 ratio, i.e., the GR15 rate for the crop divided by the GR85 rate for the weed, both rates in kg/ha (lb/A). In the tables below, selectivity factors are shown in parenthesis following the GR85 rate for each weed; the symbol "NS" indicates "non-selective". Marginal or undetermined selectivity is indicated by a dash (--).
# (§4) Additionally, pre-emergence herbicidal data from other tests have established that compounds according to this invention also selectively suppress quackgrass, yellow nutsedge and/or other weeds in one or more of the crops cotton, peanuts, bush beans and/or rape. For example, in Table VI are presented data showing the herbicidal selectivity of the compounds of Examples 1 and 2 against quackgrass in rape and snap beans. Unless otherwise noted; greenhouse tests in Table VI and in other tables below involved herbicide treatments by soil incorporation and an initial overhead irrigation followed by subirrigation as described above.
# (§5) In another greenhouse test, the compounds of Examples 3-5, 9 and 10 were tested for their herbicidal efficacy against a variety of resistant annual and perennial weeds in rape.
# [2] = tested on: soybeans; assay: Herbicidal effect in a variety of soil types; assay type: in vivo
# [3] = tested on: purple nutsedge; assay: Greenhouse pre-emergence GR15/GR85 selectivity test; assay type: in vivo
# Text: as §1, §2, §3, §4
# In other greenhouse tests, compounds according to this invention have shown selective control of a variety of annual and perennial weeds in various crops. As further illustrative, the compound of Example 1 selectively controlled purple nutsedge in both corn nd soybeans, the respective crop/weed GR15 /GR85 ratios (expressed in kg/ha) being 0.67/0.25 (S.F.=2.7) in corn and 1.1/0.25 (S.F.=4.5) in soybeans. The compound of Example 8 has shown selective control of yellow nutsedge and quackgrass in corn and soybeans. The respective crop/yellownutsedge GR15 /GR85 ratios being >2.2/0.95 (S.F.=2.5) in corn; 2.2/0.5 (SF=4.5) in soybeans and the respective GR15 /GR85 ratios for both corn and soybeans in quackgrass being >2.2/0.5 (S.F.=4.5). In a test against yellow nutsedge in cotton, the GR15 /GR85 ratio (average of two replicates) was 2.0/0.95 (S.F.=2).
# as §5
# [4] = tested on: alexandergrass; assay: as above; assay type: in vivo; details: Table XIV
# Text: as §1, with “After treatment, the pans are given an initial overhead irrigation of eater, equivalent to one-fourth inch (0.64 cm) rainfall, then watered by subirrigation as need to give adequate moisture for germination and growth.” left out
# as §3
# (§6) Unless otherwise noted; greenhouse tests in Table VI and in other tables below involved herbicide treatments by soil incorporation and an initial overhead irrigation followed by subirrigation as described above.
# [5] = tested on: shattercane; assay: as above; assay type: in vivo; details: Table XIV
# Text: as §1, with “After treatment, the pans are given an initial overhead irrigation of eater, equivalent to one-fourth inch (0.64 cm) rainfall, then watered by subirrigation as need to give adequate moisture for germination and growth.” left out
# as §3, §6
# [6] = tested on: seedling johnsongrass; assay: as above; assay type: in vivo; details: Table XIV
# Text: as §1, with “After treatment, the pans are given an initial overhead irrigation of eater, equivalent to one-fourth inch (0.64 cm) rainfall, then watered by subirrigation as need to give adequate moisture for germination and growth.” left out
# as §3, §6
# [7] = tested on: Texas panicum; assay: as above; assay type: in vivo; details: Table XIV
# Text: as §1, with “After treatment, the pans are given an initial overhead irrigation of eater, equivalent to one-fourth inch (0.64 cm) rainfall, then watered by subirrigation as need to give adequate moisture for germination and growth.” left out
# as §3, §6
# [8] = tested on: itchgrass; assay: as above; assay type: in vivo; details: Table XIV
# Text: as §1, with “After treatment, the pans are given an initial overhead irrigation of eater, equivalent to one-fourth inch (0.64 cm) rainfall, then watered by subirrigation as need to give adequate moisture for germination and growth.” left out
# as §3, §6
# [9] = tested on: red rice; assay: as above; assay type: in vivo; details: Table XIV
# Text: as §1, with “After treatment, the pans are given an initial overhead irrigation of eater, equivalent to one-fourth inch (0.64 cm) rainfall, then watered by subirrigation as need to give adequate moisture for germination and growth.” left out
# as §3, §6
# [10] = tested on: fall panicum; assay: as above; assay type: in vivo; details: Table XIV
# Text: as §1, with “After treatment, the pans are given an initial overhead irrigation of eater, equivalent to one-fourth inch (0.64 cm) rainfall, then watered by subirrigation as need to give adequate moisture for germination and growth.” left out
# as §3, §6
# [11] = tested on: Quackgrass; assay: Herbicidal effect in a variety of soil types; assay type: in vivo; details: for selectivity factor (GR15/GR85): in soybeans
# Text: The herbicide treatments were by soil incorporation with seeds planted 0.375 in (0.95 cm) deep, with 0.25 in (0.64 cm overhead irrigation. Observations were made about three weeks after treatment. Selectivity factors are shown in parenthesis.
# [12] = tested on: wild proso millet; assay: Greenhouse pre-emergence GR15/GR85 selectivity test; assay type: in vivo, wild proso millet (panicum milicaeum); details: Table XIV
# Text: as §1, with “After treatment, the pans are given an initial overhead irrigation of eater, equivalent to one-fourth inch (0.64 cm) rainfall, then watered by subirrigation as need to give adequate moisture for germination and growth.” left out
# as §3, §6
# [13] = tested on: corn; assay: as above; assay type: in vivo
# Outline: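 Active ingredient mixed into cover soil over seeded pans (pre-emergence soil incorporation), initial overhead irrigation equal to 0.64 cm rainfall, then subirrigation. Scored about 2-3 weeks after seeding; GR15 (crop) and GR85 (weed) rates in kg/ha, selectivity factor = crop GR15 / weed GR85.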
# [14] = Drummer silty clay, Table XVII A
# [15] = Drummer silty clay, Table XVII B
# [16] = Drummer silty clay, Table XVII C
# [17] = Wabash silty clay, Table XVII B
# [18] = Wabash silty clay, Table XVII C
smiles,measurement,setting,value
"CCOCN(C(=O)CCl)c1c(C)cccc1C(F)(F)F [Example 1, N-(ethoxymethyl)-2'-trifluoromethyl-6'-methyl-2-chloroacetanilide]",GR15 Rate,[1],0.85 Kg/Ha
same,GR15,[2]; [14],> 2.2 Kg/Ha
same,GR15,[2]; [15],2.2 Kg/Ha
same,GR15,[2]; [16],2.0 Kg/Ha
same,GR15,"[2]; Florida muck, Table XVII A",> 2.2 Kg/Ha
same,GR15,"[2]; Florida muck, Table XVII B",2.2 Kg/Ha
same,GR15,"[2]; Florida muck, Table XVII C",> 2.2 Kg/Ha
same,GR15,"[2]; Florida sand, Table XVII A",2.0 Kg/Ha
same,GR15,"[2]; Florida sand, Table XVII B",2.2 Kg/Ha
same,GR15,"[2]; Ray silt loam, Table XVII A",1.1 Kg/Ha
same,GR15,"[2]; Ray silt loam, Table XVII B",2.2 Kg/Ha
same,GR15,"[2]; Ray silt loam, Table XVII C",2.0 Kg/Ha
same,GR15,"[2]; Sarpy silty clay, Table XVII A",> 2.2 Kg/Ha
same,GR15,"[2]; Sarpy silty clay, Table XVII B",2.2 Kg/Ha
same,GR15,"[2]; Sarpy silty clay, Table XVII C",> 2.2 Kg/Ha
same,GR15,[2]; [17],2.2 Kg/Ha
same,GR15,[2]; [18],2.2 Kg/Ha
same,GR85,[3]; in corn,0.25 kg/ha
same,S.F. (GR15/GR85),[3]; in corn,2.7
same,GR85,[3]; in soybeans,0.25 kg/ha
same,S.F. (GR15/GR85),[3]; in soybeans,4.5
same,GR85 Rate,[4],0.56 Kg/Ha
same,selectivity factor (GR15/GR85),[4]; in soybeans,> 2.0
same,GR85 Rate,[5],0.28 Kg/Ha
same,selectivity factor (GR15/GR85),[5]; in soybeans,> 4.0
same,GR85 Rate,[6],0.14 Kg/Ha
same,selectivity factor (GR15/GR85),[6]; in soybeans,> 8.0
same,GR85 Rate,[7],1.1 Kg/Ha
same,selectivity factor (GR15/GR85),[7]; in soybeans,> 1.0
same,GR85 Rate,[8],1.1 Kg/Ha
same,selectivity factor (GR15/GR85),[8]; in soybeans,> 1.0
same,GR85 Rate,[9],0.2 Kg/Ha
same,selectivity factor (GR15/GR85),[9]; in soybeans,> 5.5
same,GR85 Rate,[10],< 0.07 Kg/Ha
same,selectivity factor (GR15/GR85),[10]; in soybeans,> 16
same,GR85,[11]; [14],0.11 Kg/Ha
same,GR85,[11]; [15],0.17 Kg/Ha
same,GR85,[11]; [16],0.13 Kg/Ha
same,GR85,"[11]; Florida muck, Table XVII A",0.52 Kg/Ha
same,GR85,"[11]; Florida muck, Table XVII B",0.78 Kg/Ha
same,GR85,"[11]; Florida muck, Table XVII C",0.74 Kg/Ha
same,GR85,"[11]; Florida sand, Table XVII A",0.2 Kg/Ha
same,GR85,"[11]; Florida sand, Table XVII B",0.48 Kg/Ha
same,GR85,"[11]; Ray silt loam, Table XVII A",0.22 Kg/Ha
same,GR85,"[11]; Ray silt loam, Table XVII B",0.13 Kg/Ha
same,GR85,"[11]; Ray silt loam, Table XVII C",0.10 Kg/Ha
same,GR85,"[11]; Sarpy silty clay, Table XVII A",0.28 Kg/Ha
same,GR85,"[11]; Sarpy silty clay, Table XVII B",0.10 Kg/Ha
same,GR85,"[11]; Sarpy silty clay, Table XVII C",0.13 Kg/Ha
same,GR85,"[11]; Wabash silty clay, Table XVII A",0.28 Kg/Ha
same,GR85,[11]; [17],0.13 Kg/Ha
same,GR85,[11]; [18],0.07 Kg/Ha
same,selectivity factor (GR15/GR85),[11]; [14],20
same,selectivity factor (GR15/GR85),[11]; [15],13
same,selectivity factor (GR15/GR85),[11]; [16],14.5
same,selectivity factor (GR15/GR85),"[11]; Florida muck, Table XVII A",> 4.5
same,selectivity factor (GR15/GR85),"[11]; Florida muck, Table XVII B",> 3
same,selectivity factor (GR15/GR85),"[11]; Florida muck, Table XVII C",> 3
same,selectivity factor (GR15/GR85),"[11]; Florida sand, Table XVII A",10
same,selectivity factor (GR15/GR85),"[11]; Florida sand, Table XVII B",4.5
same,selectivity factor (GR15/GR85),"[11]; Ray silt loam, Table XVII A",5
same,selectivity factor (GR15/GR85),"[11]; Ray silt loam, Table XVII B",16.5
same,selectivity factor (GR15/GR85),"[11]; Ray silt loam, Table XVII C",19.5
same,selectivity factor (GR15/GR85),"[11]; Sarpy silty clay, Table XVII A",> 8
same,selectivity factor (GR15/GR85),"[11]; Sarpy silty clay, Table XVII B",22
same,selectivity factor (GR15/GR85),"[11]; Sarpy silty clay, Table XVII C",> 16.5
same,selectivity factor (GR15/GR85),[11]; [17],17
same,selectivity factor (GR15/GR85),[11]; [18],31.5
same,GR85 Rate,[12],1.1 Kg/Ha
same,selectivity factor (GR15/GR85),[12]; in soybeans,> 1.0
same,GR15,"[13]; Table IV, Replicate #1",0.76 Kg/Ha
same,GR15,"[13]; Table IV, Replicate #2",0.76 Kg/Ha
same,GR15,[13]; Table V,2.2 Kg/Ha
same,GR15,[13]; Table XII,0.69 Kg/Ha
same,GR15,[13]; Table XIII,0.69 Kg/Ha
same,GR15,[13]; corn/purple nutsedge,0.67 kg/ha
